Experimental data taken from US7482341B2, “Pyridines” (Hoffmann-La Roche Inc., priority 2004, dated 2009).

Assays:
11beta-HSD1 [1] = target: T1, 11beta-HSD1 (Homo sapiens, UniProt P28845); assay: Microsome assay (cortisone to cortisol, ELISA); assay type: biochemical; parameters: made in house; host or cells: HEK293 cells (ATCC CRL-1573), transient transfection with pcDNA3 construct; microsomal fraction; settings: microsomes from HEK293 cells transiently expressing human 11beta-HSD1; 60 min, 37° C.; cortisol production 50% reduced; read-out: h 11-beta-HSD 1 IC50
Procedure: Transient Expression and Partial Purification:
The cDNA encoding the human 11beta-HSD1 protein was cloned into the expression vector pcDNA3 ([…]). This construct (for details see Alex Odermatt et al.; J Biol Chem.,1999, Vol. 274, Issue 40, 28762-28770) was used to transiently express the protein in HEK293 cells (ATCC number: CRL-1573, described in Graham, F. L., Smiley, J., Russell, W. C., Nairn, R.; (1977)) using lipofectamine. 48h after transfection cells were washed twice with ice-cold PBS (Phsophate buffered Saline). To 1 volume of cell suspension in PBS 2 volumes of ice-cold lysis buffer (50 mM Tris; pH7.5; 1 mM EDTA; 100 mM NaCl) were added. The cells were lysed by Potter-homogenization (20 strokes). The resulting homogenate was sonicated wit a tip sonicator (10% output; 2×30 sec.) and cleared by a low speed centrifugation (10 min×9000 g; 4° C.). […]
Microsomes isolated from HEK293 cells transiently expressing human 11beta-HSD1 (for details see above) were incubated in assay buffer (100 mM NaCl; 1 mM EDTA; 1 mM EGTA; 1 mM MgCl; 250 mM Sucrose; 20 mM Tris pH 7.4; Cortisone 50-200 nM and NADPH 1 mM) together with different concentrations of test substances. […] The amount of Cortisol produced in this assay was determined using a commercially available, ELISA-based Cortisol-detection kit (Distributed by Assay Design, Inc.). […]

11beta-HSD1 [2] = target: T1, 11beta-HSD1; parameters: host or cells: human subjects (in vivo); settings: humans, treatment with carbenoxolone; cited from earlier work

T1 sequence (P28845 whole entry): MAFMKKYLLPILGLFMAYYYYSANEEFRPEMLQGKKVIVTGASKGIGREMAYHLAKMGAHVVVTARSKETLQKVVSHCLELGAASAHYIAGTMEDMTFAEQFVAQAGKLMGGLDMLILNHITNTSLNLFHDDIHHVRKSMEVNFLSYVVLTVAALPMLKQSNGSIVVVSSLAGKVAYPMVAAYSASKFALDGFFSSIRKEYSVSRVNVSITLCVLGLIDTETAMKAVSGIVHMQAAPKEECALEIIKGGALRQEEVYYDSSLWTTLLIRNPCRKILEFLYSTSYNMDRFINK

| IC50 (11beta-HSD1 [1]) | SMILES | insulin sensitivity (11beta-HSD1 [2]) |
| --- | --- | --- |
| 0.016 µM | O=S(=O)(Nc1cccc(COCc2ccc(F)cc2)n1)c1ccc(F)cc1 [Example 105, 4-Fluoro-N-[6-(4-fluoro-benzyloxymethyl)-pyridin-2-yl]-benzenesulfonamide] |  |
| 0.005 µM | Cc1c(Cl)cccc1S(=O)(=O)Nc1ccc(Oc2ccc(F)cc2)cn1 [Example 186, 3-Chloro-N-[5-(4-fluoro-phenoxy)-pyridin-2-yl]-2-methyl-benzenesulfonamide benzenesulfonamide] |  |
|  | CC1(C)[C@@H](OC(=O)CCC(=O)O)CC[C@]2(C)[C@H]3C(=O)C=C4[C@@H]5C[C@@](C)(C(=O)O)CC[C@]5(C)CC[C@@]4(C)[C@]3(C)CC[C@@H]12 [carbenoxolone] | increase in insulin sensitivity |
